Values quoted from earlier work in patent US20230165893A1, “TREATMENT OF VIRAL INFECTIONS” (SULFAGENIX, INC., priority 2020, published 2023).

Settings: pure elemental sulfur, stated as a contrast, no source given

**Q.** Which “solubility in carbon disulfide (in words)” value does the source give for S1SSSSSSS1 [alpha-elemental sulfur, elemental alpha sulfur] here?
**A.** Its value is “completely soluble”.
